Where a name gives a salt, the structure may show the parent alone. Blank lines part the entries; values can stand above or below the molecule they belong to.
Legend:
primary human T cells = test: T cell activation markers CD25 and CD69 (flow cytometry); format: cell-based
Protocol: 96-well plates were coated with anti-CD3 (1:200; BioXcell) and anti-CD28 (1:500; 302933; BioLegend) in PBS (100 μL/well) overnight at 4° C. The plates were then washed twice with PBS and to each well was added 500,000 primary T cells in 100 μL of RPMI supplemented with 10% FBS, glutamine, and Pen-Strep. Cells were then treated with 100 μL of media containing compound at the indicated concentrations (final well volume of 200 μL). Cells were left at 37° C. in a 5% CO2 incubator for the indicated periods of time and harvested by centrifugation (500 g, 8 min, 4° C.), followed by washing with PBS.
Flow cytometry analysis of cell surface antigens was performed with the following antibodies: Pacific Blue-conjugated anti-CD8 (1:25 dilution; clone RPA-T8; BD Biosciences), APC-conjugated anti-CD4 (1:25 dilution; clone RPA-T4; eBioscience), phycoerythrin-conjugated anti-CD25 (1:25 dilution; clone BC96; eBioscience or PC61; BioLegend (PKCθ studies)), FITC-conjugated anti-CD69 (1:25 dilution; clone FN50; eBioscience). All antibodies were diluted in 1% FBS in PBS, and 50 μL of the stain solution was added to each well. […] Flow cytometry acquisition was performed with BD FACSDivam-driven BD™ LSR II flow cytometer (Becton, Dickinson and Company). Data was then analyzed with FlowJo software (Treestar Inc.). Data represent mean±SE for four-five experiments per group.

[1] = target: T1, Cys residues in primary human T cells (Homo sapiens, UniProt Q16548); test: isoTOP-ABPP of compound-treated primary human T cells; format: cell-based
T1 sequence (Q16548 1-175): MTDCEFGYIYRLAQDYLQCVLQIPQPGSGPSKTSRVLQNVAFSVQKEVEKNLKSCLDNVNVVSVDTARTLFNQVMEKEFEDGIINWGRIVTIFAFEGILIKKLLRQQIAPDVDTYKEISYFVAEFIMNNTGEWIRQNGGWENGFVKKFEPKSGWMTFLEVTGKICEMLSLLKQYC

RNF214 C655 (Q8ND24) = RNF214 C655 (Q8ND24) (Homo sapiens, UniProt Q8ND24); test: Competitive isoTOP-ABPP in situ; format: cell-based; details: fragment 2 at 200 μM, MDA-MB-231 cells
PGPEPI C149 (Q9NXJ5) = PGPEPI C149 (Q9NXJ5) (Homo sapiens, UniProt Q9NXJ5); test: Competitive isoTOP-ABPP in situ; format: cell-based; details: fragment 4 at 100 μM, MDA-MB-231 cells
PRMT1 = target: T2, PRMT1 (Homo sapiens, UniProt Q99873); test: PRMT1 in vitro methylation assay (histone 4, 3H-SAM); format: biochemical; details: pre-treatment with fragment 1 h
T2 construct: Full length PRMT1 subcloned into pET45b (+) (Novagen) was previously generated by the Cravatt lab; inferred from Ni-NTA purification and the pET45b vector; made in house; host or cells: E. coli BL21(DE3)
Protocol: PRMT1 assays were conducted as described in Weerapana et al. Nature 468:790-795 (2010). Recombinant human PRMT1 (0.85 μM, wild type or C101S mutant) in 25 μL methylation buffer (20 mM Tris, pH 8.0, 200 mM NaCl, 0.4 mM EDTA) was pre-incubated with indicated fragments for 1 h and methylation activity was monitored after addition of […] of recombinant histone 4 (NEB, M2504S) and ^3H-SAM (2 μCi). Reactions were further incubated for 60 min at ambient temperature and stopped with 4×SDS sample buffer. SDS-PAGE gels were fixed with 10% acetic acid/10% methanol (v/v), washed, and incubated with Amplify reagent (Amersham) before exposing to film at −80° C. for 3 days.

[2] = anti-CD3, anti-CD28 stimulation, 8 h

PGPEPI C149 (Q9NXJ5), sequence (Q9NXJ5 whole entry, the tested form may be a part): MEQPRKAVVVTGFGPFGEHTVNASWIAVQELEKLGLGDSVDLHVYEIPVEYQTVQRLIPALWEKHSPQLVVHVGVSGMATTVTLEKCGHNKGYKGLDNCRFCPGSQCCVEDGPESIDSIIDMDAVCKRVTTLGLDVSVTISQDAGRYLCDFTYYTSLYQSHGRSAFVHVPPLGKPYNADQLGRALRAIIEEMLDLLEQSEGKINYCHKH
T2 sequence (Q99873 11-371 limits assumed): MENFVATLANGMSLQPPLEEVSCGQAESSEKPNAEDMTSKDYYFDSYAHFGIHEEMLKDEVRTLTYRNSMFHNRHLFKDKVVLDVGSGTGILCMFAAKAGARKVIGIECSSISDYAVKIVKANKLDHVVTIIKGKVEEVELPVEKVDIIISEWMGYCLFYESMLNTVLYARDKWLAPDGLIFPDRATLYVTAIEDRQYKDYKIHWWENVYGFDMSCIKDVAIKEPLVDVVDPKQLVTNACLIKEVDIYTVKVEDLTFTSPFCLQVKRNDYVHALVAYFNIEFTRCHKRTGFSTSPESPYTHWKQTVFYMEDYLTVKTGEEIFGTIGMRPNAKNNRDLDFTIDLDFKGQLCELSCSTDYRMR
RNF214 C655 (Q8ND24), sequence (Q8ND24 whole entry, the tested form may be a part): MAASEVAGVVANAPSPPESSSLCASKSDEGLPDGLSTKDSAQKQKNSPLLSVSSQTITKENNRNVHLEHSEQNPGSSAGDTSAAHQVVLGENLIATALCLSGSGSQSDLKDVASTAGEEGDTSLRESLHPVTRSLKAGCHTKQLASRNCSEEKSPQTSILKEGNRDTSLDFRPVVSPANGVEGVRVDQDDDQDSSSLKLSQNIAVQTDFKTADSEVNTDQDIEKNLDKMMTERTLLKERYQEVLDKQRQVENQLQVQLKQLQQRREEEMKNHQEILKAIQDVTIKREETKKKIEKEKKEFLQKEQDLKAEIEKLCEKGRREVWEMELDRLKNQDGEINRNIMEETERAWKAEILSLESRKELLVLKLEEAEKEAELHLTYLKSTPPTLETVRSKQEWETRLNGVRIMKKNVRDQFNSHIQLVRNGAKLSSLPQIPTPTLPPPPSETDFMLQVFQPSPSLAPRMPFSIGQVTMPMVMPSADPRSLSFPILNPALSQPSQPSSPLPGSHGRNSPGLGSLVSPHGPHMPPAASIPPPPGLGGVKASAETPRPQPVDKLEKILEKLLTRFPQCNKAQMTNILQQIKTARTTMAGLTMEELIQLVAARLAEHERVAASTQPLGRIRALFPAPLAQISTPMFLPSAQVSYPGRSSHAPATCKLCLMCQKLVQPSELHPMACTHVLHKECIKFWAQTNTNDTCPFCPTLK

Structure (SMILES): COC(=O)/C=C/C(=O)OC [DMF, dimethyl fumarate]
- blockade of T cell activation (primary human T cells; 10 μM): marginal/negligible
- blockade of T cell activation (primary human T cells; 25 μM): partial
- blockade of T cell activation (primary human T cells; 50 μM): near-complete inhibition
- expression of CD25 (primary human T cells; [2]): blocked
- expression of CD69 (primary human T cells; [2]): blocked
- inhibitory effect on T cell activation (primary human T cells; drug added six hours after stimulation): completely ablated
- inhibitory effect on T cell activation (primary human T cells; drug added two hours after stimulation): reduced
- R value (DMSO/DMF) ([1]; BCL2A1 C19 (Q16548), DMF 10 μM 4h): 1,15
- R value (DMSO/DMF) ([1]; BCL2A1 C19 (Q16548), DMF 25 μM 4h): 2.19
- R value (DMSO/DMF) ([1]; BCL2A1 C19 (Q16548), DMF 50 μM 2h): 2.09
- R value (DMSO/DMF) ([1]; BCL2A1 C19 (Q16548), DMF 50 μM 4h): 4.16
- R value (DMSO/DMF) ([1]; BCL2A1 C55 (Q16548), DMF 50 μM 4h): 7.18

- isoTOP-ABPP reactivity profile (ratio) 2_200 μM_in-situ_231 (RNF214 C655 (Q8ND24)): 6.5
Structure (SMILES): COc1ccc2c(c1)CCCN2C(=O)CCl [compound 2]

- isoTOP-ABPP reactivity profile (ratio) 4_100 μM_in-situ_231 (PGPEPI C149 (Q9NXJ5)): 20.0
Structure (SMILES): COc1ccc(C2CC(c3cccs3)=NN2C(=O)CCl)cc1 (stereo not drawn) [compound 4]

- PRMT1-catalyzed methylation of histone 4 (PRMT1): inhibited
Structure (SMILES): Cn1cc(S(=O)(=O)N2CCOCC2)cc1C(=O)NC(=O)CCl [compound 11]
